Data on eight compounds can be found in publication PMC10229614 (Scientific Reports, 2023).

Where two headings read alike, the source gives them in different places.

Broadly, the IC50 is the concentration at which inhibition is half-maximal.

For one data set, the target named is T1, aromatase (CYP19A1) (Homo sapiens, UniProt P11511).
T1 construct: purchased Corning (Corning, NY)
T1 sequence (P11511 1-503): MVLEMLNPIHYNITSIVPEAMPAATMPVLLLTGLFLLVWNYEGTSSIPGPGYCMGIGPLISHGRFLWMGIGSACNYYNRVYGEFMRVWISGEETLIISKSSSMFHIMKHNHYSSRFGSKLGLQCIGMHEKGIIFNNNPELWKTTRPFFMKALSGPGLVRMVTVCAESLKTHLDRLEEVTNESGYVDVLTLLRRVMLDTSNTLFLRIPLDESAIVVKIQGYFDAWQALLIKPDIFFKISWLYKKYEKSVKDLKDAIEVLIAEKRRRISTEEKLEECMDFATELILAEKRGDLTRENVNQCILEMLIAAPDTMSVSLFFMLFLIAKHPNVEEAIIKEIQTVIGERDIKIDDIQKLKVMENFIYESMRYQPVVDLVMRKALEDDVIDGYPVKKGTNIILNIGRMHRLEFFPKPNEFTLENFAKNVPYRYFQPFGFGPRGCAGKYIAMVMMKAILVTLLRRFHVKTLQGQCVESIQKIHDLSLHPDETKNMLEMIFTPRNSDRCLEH
Briefly: Aromatase inhibition assay (Corning Supersomes CYP19/MFC kit, fluorescent). The conditions noted are these: 37 °C, mean ± SD of at least three measurements. Format: biochemical. How it is done: Formation of a fluorescent metabolite was measured at Ex/Em of 409 nm/530 nm. Data represents mean ± SD of at least three independent measurements.
To evaluate the aromatase inhibitory potential of hops, licorice species, and their bioactive compounds, the Corning® Supersomes™ P450 Inhibition Kit CYP19/MFC high throughput inhibition assay was used. The protocol of the kit, which is based on the effects of the tested agents on the conversion of the fluorescent substrate, 7-methoxy-4-trifluoromethyl coumarin (MFC) to 7-hydroxy-4-trifluoromethyl coumarin (HFC) by aromatase, was followed. […] Then the enzyme/substrate mixture containing the aromatase enzyme and MFC were added to the pre-incubated mixture and were incubated at 37 °C for 30 min before stopping the enzymatic reaction with the stop solution. The fluorescent signal was evaluated at the Excitation/Emission of 409 nm/530 nm and was corrected for the potential innate fluorescence of the tested extracts and compounds.

Another data set deals with ERα. The conditions noted are these: read-out: ERα binding (IC50), cited from earlier work.
For a further data set, the system named is ERβ. The following applies: read-out: ERβ binding (IC50), cited from earlier work.
Data set [1] deals with uterus. Details: method as in PMID 18619951, PMID 34848279. The conditions noted are these: cited from earlier work.
For the next data set, the system named is CYP19A1 expression. Briefly: qPCR of CYP19A1 mRNA in high-risk postmenopausal breast tissue microstructures. The data set is classed as cell-based, human. The conditions noted are these: 24 h, vs vehicle; for Suppression of baseline CYP19A1 expression: 5 µM, six subjects' tissues. In general terms: In qPCR the cycle at which signal appears reflects the starting amount.

For data set [2], the system named is uterus. Briefly: In vivo uterotrophic study in immature female Sprague-Dawley rats. The conditions noted are these: 3 days. Details: species or system rat. How it is done:
Animals were sacrificed on day 4 and their uterine weights were measured.
We used the OECD guidelines and animal model for testing uterotrophic or estrogenic activity of compounds[49]. […] The animals were treated for 3 days every 24 h. Animal weight and food intake were evaluated daily. Animals were sacrificed by CO2 asphyxiation. Uterus was collected, trimmed of fat and connective tissue, and weighted.

A further data set relates to MCF-7 cells. Kind of data set: MCF-7 cell proliferation by IncuCyte live cell imaging. The data set is classed as cell-based, human. The method, then:
Cell proliferation was monitored using live cell imaging by IncuCyte. Data represents the mean of at least two independent observations ± SEM.
MCF-7 cells were seeded at density of 2.5 × 10^3 cells/well in RPMI media supplemented with 10% FBS. Cells were placed in IncuCyte for live cell imaging every 6 h, and were monitored. […] Treatments were repeated every 48 h until day 6 and cells were monitored until day 12. Data was analyzed using Zoom software to quantify the images and were plotted as mean ± SD of at least two independent measurements.

[3] abbreviates: ref J Agric Food Chem. 2020, 68: 10651–10663.

Protocol for CYP19A1 expression: Subsequently, RNA extraction and qPCR of CYP19A1 was performed. The expression of CYP19A1 mRNA was calculated relative to the housekeeping gene RPLP0 and normalized to DMSO control.
The unaffected contralateral breast tissues of postmenopausal women who underwent bilateral mastectomy due to incident unilateral breast cancer were obtained while fresh and diced to approximately 5 mm pieces before digesting at 37 °C with 2% collagenase I in F12-K nutrient mix (Kaighn’s) medium, overnight. After the completion of digestion, the tissue was centrifuged at 250×g for 5 min and the supernatant was discarded. The pellet was washed with phosphate buffered saline and was mixed and cultured in MammoCult media supplemented with 0.2% heparin and 0.5% hydrocortisone. After 24 h incubation at 37 °C the treatments were mixed with fresh MammoCult media and added to the microstructures.
After 24 h incubation with the treatments, the microstructure pellet of the first 6 donors’ samples were prepared separately (not pooled) and washed with HBSS. Trizol was added to each pellet and the protocol of Direct-Zol RNA prep kit was used to extract RNA. The protocol included a step of DNAse I treatment for removing DNA contamination of the RNA preparations. RNA was eluted in nuclease free water and the concentration was measured using Nano Drop 2000 spectrophotometry (Thermo Fisher). The Integrated DNA Technologies (IDT) protocol, pre-made aromatase (CYP19A1) gene primer, and the pre-made housekeeping RPLP0 gene primer was used to perform qPCR using QuantStudio 12 K Flex Real Time PCR system.

For `CC(C)=CCc1c(O)cc2c(c1O)C(=O)C[C@@H](c1ccc(O)cc1)O2` [6-PN, 6-prenylnaringenin], the IC50 against aromatase (CYP19A1) amounted to 7.4 ± 0.3 µM.

`CC(C)=CCc1c(O)cc(O)c2c(=O)cc(-c3ccc(O)cc3)oc12` [8-PA, 8-prenylapigenin]: the values for the IC50 in the data set on ERα (setting [3]), against aromatase (CYP19A1) and with ERβ (setting [3]) were 0.1 ± 0.05 µM, 0.59 ± 0.08 µM and 0.03 ± 0.01 µM, respectively.

In the case of `CC(C)=CCc1c(O)cc(O)c2c1O[C@H](c1ccc(O)cc1)CC2=O` [8-PN, 8-prenylnaringenin], the Uterine growth entry in the data set with uterus [1] was “enhance uterine growth”. In the data set with CYP19A1 expression (10 µM, 5 subjects' tissues), the “Suppression of CYP19A1 expression” value was found to be 40%. The figures for the IC50 in the data set on ERα (setting [3]), at aromatase (CYP19A1) and in the data set on ERβ (setting [3]) were […], 0.05 ± 0.004 µM and […], respectively.

For `C[C@]12CC[C@@H]3c4ccc(OC(=O)c5ccccc5)cc4CC[C@H]3[C@@H]1CC[C@@H]2O` [Estradiol benzoate, 17β-estradiol benzoate, reference compound], in the data set on uterus [2] (1.6 µg/kg.day s.c.), the “Uterine weight vs vehicle” value is “significantly enhanced uterine weight (nearly doubled)”.

Consider `C=CC(C)(C)c1cc(/C=C/C(=O)c2ccc(O)cc2)c(OC)cc1O` [LicA, licochalcone A], for which, in the data set on CYP19A1 expression, the “Suppression of baseline CYP19A1 expression” value is about 40%. Moreover, half-maximal inhibition against aromatase (CYP19A1) (IC50) required 3.2 ± 0.1 µM.

For `O=C(/C=C/c1ccc(O)cc1)c1ccc(O)cc1O` [LigC, isoliquiritigenin], the IC50 in the data set on ERα (ref PLoS One, 2013, 8: e67947) was 16 ± 1 µM; against aromatase (CYP19A1), 4 ± 0.3 µM; with ERβ (ref PLoS One, 2013, 8: e67947) it was 7.8 ± 0.1 µM.

In the case of `O=C1C[C@@H](c2ccc(O)cc2)Oc2cc(O)ccc21` [LigF, liquiritigenin], the “Suppression of baseline CYP19A1 expression” value in the data set on CYP19A1 expression was 25%. The IC50 was over 200 µM in the data set with ERα (ref PLoS One, 2013, 8: e67947) and 0.43 ± 0.02 µM against aromatase (CYP19A1). The “Uterine growth vs vehicle” value is “did not enhance uterine growth, significantly” in the data set with uterus [2] (50 mg/kg.day s.c.) and “did not enhance uterine growth, significantly” with uterus [2] (150 mg/kg.day s.c.). Moreover, the E2-induced uterine growth entry with uterus [2] (150 mg/kg.day s.c. co-administered with estradiol benzoate 1.6 µg/kg.day) was “suppressed E2-induced uterine growth, significantly”. Moreover, the “Cell proliferation after treatment halted” value with MCF-7 cells (20 µM, treatment halted after third dose (six days)) is listed as “reached full confluency on day 10”; in the data set with MCF-7 cells (40 µM, last dose on day 6), “maintained a significantly reduced proliferation rate until the end of the study (day 11)”. The Cytotoxicity entry with MCF-7 cells (MCF-7 cells exposed to LigF) is reported as “did not detect cytotoxicity”. For the same compound, the Cell proliferation result with MCF-7 cells (repeated doses of 20 µM every 48 h) and in the data set on MCF-7 cells (repeated doses of 40 µM every 48 h) was “profound suppression of proliferation” throughout. Besides, the “Cell proliferation after a single dose” value in the data set on MCF-7 cells (single dose) is “clear reduction in cell proliferation for up to 48 h”.

In the case of `COc1cc(O)c(CC=C(C)C)c(O)c1C(=O)/C=C/c1ccc(O)cc1` [XH, xanthohumol], the midpoint of inhibition at aromatase (CYP19A1), the IC50, lay at 4.3 ± 0.6 µM.
